{
  "source": "patent US8043826B2",
  "about": "“Device for monitoring inhibition of platelet function response” (Medical Innovations International, Inc., priority 2005, dated 2011)",
  "test_system": "platelets",
  "assay": "Assaying platelet aspirin response: luciferin/luciferase light emission (extracellular ATP) in arachidonic-acid-treated diluted whole blood drawn before and after taking aspirin",
  "format": "cell-based, human",
  "conditions": "individuals of FIGS. 2A and 2C; blood drawn after aspirin 325 mg; no-aspirin sample very steep",
  "protocol": "Volunteers who had not taken aspirin in the previous 24 hours underwent a finger prick to draw blood. Blood (2 μl) was diluted into 1 ml of buffer (PBS, 0.9% NaCl, 10 mM sodium phosphate, pH 7.0) in a clear test tube. An aliquot (15 μl) of luciferin/luciferase solution (containing 10 mg/ml luciferin and 10 μg/ml luciferase) was added to the diluted blood. The solution was mixed and placed in a Zylux FEMPTOMASTER FB12 photon counter. A baseline reading of the light emission was taken. The test tube was then withdrawn, and 5 μl of 15 mM arachidonic acid was added to the solution and the solution was mixed. The test tube was then reinserted in the photon counter and light emission readings were taken for approximately 2 to 4 minutes.\nThe volunteer then swallowed or chewed an aspirin (325 mg). A blood sample was taken, and the process was repeated. The results from blood drawn from an individual before and after taking aspirin were compared.",
  "data": [
    {"smiles": "CC(=O)Oc1ccccc1C(=O)O", "note": "[aspirin]", "values": [
      {"measurement": "slope of light emission vs. time after arachidonic acid is added, aspirin sample", "result": "almost flat"}
    ]}
  ]
}
